Data as given in patent US20190002942A1, “ANTIBIOTIC FIIRV 104/18 COMPLEX AND THE ISOLATED INDIVIDUAL FACTORS THEREOF” (Fondazione Istituto Insubrico di Ricerca per la Vita, priority 2015, published 2019).
≈ marks a conversion by molar mass, not a printed value. Like-named read-outs stand apart in the source and are kept apart here. Blank lines part the entries; values can stand above or below the compound they belong to.

Assays:
[1] = test system: L819 S. aureus Smith ATCC19636; test: MIC, broth microdilution (CLSI); format: cell-based, Staphylococcus aureus; settings: Staphylococcus aureus
Experimental: (§1) Inocula are: 2-5×10^5 CFU/mL for Gram positive and Gram negative bacteria; 10^4 CFU/mL for Candida albicans.
(§2) The effect of 30% bovine serum is determined under the same experimental conditions.
(§3) Cultures are incubated at 35° C. in air. After 18-24 hours visual readings are performed and MICs determined. The MIC (Minimal Inhibitory Concentration) is defined as the lower concentration of antibiotic at which there is no visible growth. The strains used are clinical isolates or strains from American Type Culture Collection (ATCC).

L100 S. aureus ATCC 6538 = test: MIC, broth microdilution (CLSI); format: cell-based; settings: Staphylococcus aureus, ATCC6538
Experimental: as §1, §2, §3

L1400 S. aureus MRSA = test: MIC, broth microdilution (CLSI); format: cell-based; settings: Staphylococcus aureus
Experimental: as §1, §2, §3

L1577 S. epidermidis = test: MIC, broth microdilution (CLSI); format: cell-based; settings: Staphylococcus epidermidis
Experimental: as §1, §2, §3

[2] = test system: L1729 S. haemolyticus MDR; test: MIC, broth microdilution (CLSI); format: cell-based; settings: Staphylococcus haemolyticus
Experimental: as §1, §2, §3

L1730 S. haemolyticus = test: MIC, broth microdilution (CLSI); format: cell-based; settings: Staphylococcus haemolyticus
Experimental: as §1, §2, §3

L3030 A. baumannii = test: MIC, broth microdilution (CLSI); format: cell-based; settings: Acinetobacter baumannii
Experimental: as §1, §2, §3

L3294 M. catarrhalis = test: MIC, broth microdilution (CLSI); format: cell-based; settings: Moraxella catarrhalis
Experimental: as §1, §2, §3

L44 S. pneumoniae = test: MIC, broth microdilution (CLSI); format: cell-based; settings: Streptococcus pneumoniae
Experimental: as §1, §2, §3

L47 E. coli, SKF 12140 = test: MIC, broth microdilution (CLSI); format: cell-based; settings: Escherichia coli
Experimental: as §1, §2, §3

L49 S. pyogenes C203 = test: MIC, broth microdilution (CLSI); format: cell-based; settings: Streptococcus pyogenes
Experimental: as §1, §2, §3

L559 E. faecalis = test: MIC, broth microdilution (CLSI); format: cell-based; settings: Enterococcus faecalis
Experimental: as §1, §2, §3

L568 E. faecium = test: MIC, broth microdilution (CLSI); format: cell-based; settings: Enterococcus faecium
Experimental: as §1, §2, §3

L569 E. faecium VanA = test: MIC, broth microdilution (CLSI); format: cell-based, Enterococcus faecium; settings: Enterococcus faecium, L569 E. faecium VanA
Experimental: as §1, §2, §3

L560 E. faecalis VanA = test: MIC, broth microdilution (CLSI); format: cell-based, Enterococcus faecalis; settings: Enterococcus faecalis, L560 E. faecalis VanA
Experimental: as §1, §2, §3

L2048 B. cenocepacia = test: MIC, broth microdilution (CLSI); format: cell-based; settings: Burkholderia cenocepacia
Experimental: (§4) Antimicrobial activity of the antibiotic FIIRV 104/18 complex is determined by the broth microdilution method according to the procedures published by the Clinical and Laboratory Standards Institute (CLSI), formerly the National Committee for Clinical Laboratory Standards (NCCLS) (document M07-A9). Inocula are: 2-5×10^5 CFU/mL for Gram positive and Gram negative bacteria; 10^4 CFU/mL for Candida albicans.
(§5) The media used are: cation adjusted Mueller Hinton broth (CAMHB) for Staphylococci, Enterococci, Moraxella catarrhalis, Escherichia coli; Todd Hewitt broth (THB) for Streptococci; RPMI 1640 Medium for C. albicans. The effect of 30% bovine serum is determined under the same experimental conditions.
as §3, with “(ATCC). Individual factors of antibiotic FIIRV 104/18 are dissolved in DMSO to obtain a 1000 μg/mL stock solution, and subsequently diluted in water to obtain working solution.” for “(ATCC).”

L145 C. albicans = test: MIC, broth microdilution (CLSI); format: cell-based, Candida albicans; settings: Candida albicans
Experimental: as §4, §5
as §3, with “(ATCC). Individual factors of antibiotic FIIRV 104/18 are dissolved in DMSO to obtain a 1000 μg/mL stock solution, and subsequently diluted in water to obtain working solution.” for “(ATCC).”

[3] = test system: Gram-positive susceptible, resistant and multi-resistant pathogenic bacteria; test: Growth inhibition of Gram-positive bacteria (summary); format: cell-based; settings: Gram positive bacteria: Staphylococci incl. MRSA and MR coagulase-negative, Streptococci, Enterococci incl. VanA
Experimental: as §4, §5
as §3, with “(ATCC). Individual factors of antibiotic FIIRV 104/18 are dissolved in DMSO to obtain a 1000 μg/mL stock solution, and subsequently diluted in water to obtain working solution.” for “(ATCC).”

[4] = +30% SB (bovine serum), read-out: MIC

SMILES: COC(=O)c1c(C)cc2c(c1O)C1(O)C(=O)c3cc4c(c(O)c3C(=O)C1(OC)[C@H](O)C2)C(=O)C=C(NC1O[C@@H](C)[C@H](OC2C=CC(=O)C(C)O2)[C@@H](O)[C@H]1OC)C4=O (stereo partly drawn) [F793, (6R,6aS,14aR)-methyl 11-[(2S,3R,4R,5R,6S)-4-hydroxy-3-methoxy-6-methyl-5-{[(2S,6S)-6-methyl-5-oxo-5,6-dihydro-2H-pyran-2-yl]oxy}tetrahydro-2H-pyran-2-ylamino]-1,6,8,14a-tetrahydroxy-6a-methoxy-3-methyl-7,9,12,14-tetraoxo-5,6,6a,7,9,12,14,14a-octahydrobenzo[α]tetracene-2-carboxylate]
MIC ([1]; ATCC19636, L819 S. aureus Smith ATCC19636, CAMHB): 0.5 µg/mL (≈ 0.63 µM) | MIC ([1]; ATCC19636, L819 S. aureus Smith, +30% SB (bovine serum)): 4 µg/mL (≈ 5.04 µM) | MIC (L100 S. aureus ATCC 6538): 1 µg/mL (≈ 1.26 µM) | MIC (L1400 S. aureus MRSA; MRSA): 0.5 µg/mL (≈ 0.63 µM) | MIC (L1577 S. epidermidis): 0.25 µg/mL (≈ 0.315 µM) | MIC [2]: 1 µg/mL (≈ 1.26 µM) | MIC (L1730 S. haemolyticus): 1 µg/mL (≈ 1.26 µM) | MIC (L3030 A. baumannii): 128 µg/mL (≈ 161 µM) | MIC (L3294 M. catarrhalis): 1 µg/mL (≈ 1.26 µM) | MIC (L44 S. pneumoniae): 0.06 µg/mL (≈ 0.0756 µM) | MIC (L47 E. coli, SKF 12140): > 128 µg/mL | MIC (L49 S. pyogenes C203): 0.03 µg/mL (≈ 0.0378 µM) | MIC (L559 E. faecalis): 0.5 µg/mL (≈ 0.63 µM) | MIC (L568 E. faecium): 1 µg/mL (≈ 1.26 µM) | MIC (L569 E. faecium VanA; +30% SB (bovine serum)): 16 µg/mL (≈ 20.2 µM) | MIC (L569 E. faecium VanA; CAMHB): 1 µg/mL (≈ 1.26 µM) | MIC (L560 E. faecalis VanA; +30% SB (bovine serum)): 2 µg/mL (≈ 2.52 µM) | MIC (L560 E. faecalis VanA; CAMHB): 0.5 µg/mL (≈ 0.63 µM) | MIC (L2048 B. cenocepacia): 128 µg/mL (≈ 161 µM) | MIC (L145 C. albicans): > 128 µg/mL | antibacterial activity (in words) [3]: very high antibacterial activity

MIC ([1]; ATCC19636, L819 S. aureus Smith ATCC19636, CAMHB, read-out: MIC): 0.125 µg/mL (≈ 0.154 µM) | MIC ([1]; ATCC19636, L819 S. aureus Smith, +30% SB (bovine serum), read-out: MIC): 1 µg/mL (≈ 1.23 µM) | MIC (L100 S. aureus ATCC 6538; L100 S. aureus ATCC 6538, CAMHB, read-out: MIC): 0.125 µg/mL (≈ 0.154 µM) | MIC (L1400 S. aureus MRSA; L1400 S. aureus MRSA, CAMHB, read-out: MIC): 0.5 µg/mL (≈ 0.614 µM) | MIC (L1577 S. epidermidis; L1577 S. epidermidis, CAMHB, read-out: MIC): 0.5 µg/mL (≈ 0.614 µM) | MIC (L3030 A. baumannii; L3030 A. baumannii, read-out: MIC): 128 µg/mL (≈ 157 µM) | MIC (L3294 M. catarrhalis; L3294 M. catarrhalis, CAMHB, read-out: MIC): 0.5 µg/mL (≈ 0.614 µM) | MIC (L44 S. pneumoniae; L44 S. pneumoniae, THB, read-out: MIC): 0.125 µg/mL (≈ 0.154 µM) | MIC (L47 E. coli, SKF 12140; L47 E. coli, SKF 12140, CAMHB, read-out: MIC): 128 µg/mL (≈ 157 µM) | MIC (L49 S. pyogenes C203; L49 S. pyogenes C203, THB, read-out: MIC): 0 to 125 µg/mL | MIC (L559 E. faecalis; L559 E. faecalis, CAMHB, read-out: MIC): 4 µg/mL (≈ 4.92 µM) | MIC (L568 E. faecium; L568 E. faecium, CAMHB, read-out: MIC): 4 µg/mL (≈ 4.92 µM) | MIC (L569 E. faecium VanA; [4]): 16 µg/mL (≈ 19.7 µM) | MIC (L569 E. faecium VanA; CAMHB, read-out: MIC): 4 µg/mL (≈ 4.92 µM) | MIC (L560 E. faecalis VanA; [4]): 16 µg/mL (≈ 19.7 µM) | MIC (L560 E. faecalis VanA; CAMHB, read-out: MIC): 4 µg/mL (≈ 4.92 µM) | MIC (L2048 B. cenocepacia; L2048 B. cenocepacia, read-out: MIC): 64 µg/mL (≈ 78.6 µM) | MIC (L145 C. albicans; L145 C. albicans, RPMI, inoculum 10^4 CFU/mL, read-out: MIC): > 128 µg/mL
SMILES: COC(=O)c1c(C)cc2c(c1O)[C@]1(O)C(=O)c3cc4c(c(O)c3C(=O)[C@]1(OC)[C@H](O)C2)C(=O)C=C(NC1O[C@@H](C)[C@H](OC2C[C@H](O)[C@H](O)C(C)O2)[C@@H](O)[C@H]1OC)C4=O (stereo partly drawn) [F813, (6R,6aS,14aR)-methyl 11-[(2S,3R,4R,5R,6S)-5-{[(2R,5S,6S)-4,5-dihydroxy-6-methyltetrahydro-2H-pyran-2-yl]oxy}-4-hydroxy-3-methoxy-6-methyltetrahydro-2H-pyran-2-ylamino]-1,6,8,14a-tetrahydroxy-6a-methoxy-3-methyl-7,9,12,14-tetraoxo-5,6,6a,7,9,12,14,14a-octahydrobenzo[α]tetracene-2-carboxylate]
MIC ([2]; L1729 S. haemolyticus MDR, CAMHB, read-out: MIC): 0.5 µg/mL (≈ 0.614 µM) | MIC (L1730 S. haemolyticus; L1730 S. haemolyticus, CAMHB, read-out: MIC): 0.5 µg/mL (≈ 0.614 µM) | antibacterial activity (in words) [3]: very high antibacterial activity
